Patent publication US20070269529A1, “Method For Treating Plants And Plant Parts” (priority 2003, published 2007)

Key:
Format in all cases: cell-based, Raphanus sativus L. cv. Cherry-Belle
PPO (EC 1.14.18.1) = assay: PPO activity in radish cotyledons; conditions: 20 mg/L, FIG. 6
Description: (§1) Seeds of Raphanus sativus L. cv. Cherry-Belle were germinated in darkness at 24° C. for 40 h in Petri dishes containing filter paper wetted with distilled water. The smaller of the two cotyledons was excised, the fresh weight determined, and 10 cotyledons placed adaxial side down on filter paper in Petri dishes containing 7.5 mL of phosphate buffered saline (PBS, 2 mM, pH 6.0) and the compounds to be tested at 20 mg/L. Cotyledons were then incubated under continuous illumination up to 72 h at 24° C. or 25° C. and the increase in fresh weight determined. Chlorophyll content was determined after extraction of tissue into 80% EtOH (containing butylated hydroxytoluene 10 mg/L) and quantified using the equations Chl a=(13.95A663)-(6.88A647) and Chl b=(24.96A652)-(7.32A663) as described by Lichtenthaler, H K (Methods in Enzymology 148:350-382, 1987). IAA oxidase, PAL, PPO and POD activity were determined as described by Kato, M et al. (Plant and Cell Physiology 41:440-447, 2000) and Li, X et al. (Plant Science 164:549-556, 2003).
PPO (EC 1.14.18.1): Like PAL and POD, PPO is an important enzyme catalyzing lignin biosynthesis in plants.

IAA oxidase = IAA oxidase activity in radish cotyledons; conditions: 20 mg/L, FIG. 7
Description: as §1
IAA Oxidase activity: IAA homeostasis is an important process contributing to correlative control of plant growth and development. Generally, IAA is synthesized in the apices and in shoots; apically derived IAA is basipetally transported. […]

PAL (EC 4.3.1.5) = assay: PAL activity in radish cotyledons; conditions: 20 mg/L, FIG. 1
Description: as §1
(§2) PAL (EC 4.3.1.5) activity: Ethylene is produced by plants in response to a variety of stresses, including wounding (Kato, M et al. Plant and Cell Physiology 41:440-447, 2000). Assuming the stress is of sufficient intensity and duration plants will also begin to show signs of senescence. […]

radish cotyledons [1] = assay: Radish cotyledon expansion bioassay (fresh weight, chlorophyll); conditions: compounds 20 mg/L, 72 h, 25° C.; for Change in fresh weight: continuous illumination
Description: as §1
In order to remove variability from the bioassay—due presumably to temporal changes in the concentration of root-derived cytokinins in cotyledons—the bioassay procedure was modified to routinely include 0.2 mg/L (approximately 1 μM) kinetin in the background.
Cotyledon expansion growth: The effect of soy EML in the presence of kinetin on expansion growth was investigated and the results are shown in Table 1.

POD (EC 1.11.1.7) = assay: POD activity in radish cotyledons; conditions: onset of organ maturity, FIG. 4
Description: as §1
To determine the effect of EML on induction of POD, activity of this enzyme was monitored during the 72 h incubation period after exposure to soy EML (20 mg/l) and the results are shown in FIG. 4. […] Highest POD activity was measured in control and ACC-treated cotyledons.

radish cotyledons [2] = assay: Protein content of radish cotyledons; conditions: 20 mg/L, FIG. 1
Description: as §1, §2

**Q.** Which PPO activity (PPO (EC 1.14.18.1)) does the source give for lysophosphatidylethanolamine [LPE] here?
**A.** The PPO activity was “did not induce PPO activity”.

**Q.** And the IAA oxidase activity (IAA oxidase)?
**A.** The IAA oxidase activity was “no apparent effect”.

**Q.** Which results are given for NC1(C(=O)O)CC1 [ACC, 1-amminocyclopropane-1-carboxylic acid]?
**A.** PAL activity (PAL (EC 4.3.1.5)): progressively delayed; % of control (change in fresh weight) (radish cotyledons [1]): 25%; Chlorophyll a + b (mg/g FW) (radish cotyledons [1]): 5.40 mg/g FW; Chlorophyll a + b (μg/cotyledon) (radish cotyledons [1]): 35.90 ± 6.13 μg/cotyledon; Chlorophyll a/b (radish cotyledons [1]): 0.83; Change in fresh weight (radish cotyledons [1]): 2.56 ± 0.39 mg; POD activity at 48 and 72 h (POD (EC 1.11.1.7)): Highest; PPO activity (PPO (EC 1.14.18.1)): appeared to suppress PPO activity; protein content (radish cotyledons [2]): delayed and reached a maximum only 24 h after exposure to light

**Q.** With c1coc(CNc2ncnc3[nH]cnc23)c1 [Kinetin, kinetin] as the compound, how does the PAL activity (PAL (EC 4.3.1.5)) read?
**A.** Its PAL activity is “progressively delayed”.

**Q.** What about the activity at 20 µg/mL (radish cotyledons [1]; Raphanus sativus, read-out: % of control (change in fresh weight)) of the same compound?
**A.** The activity at 20 µg/mL was 153%.

**Q.** And the “Chlorophyll a + b (mg/g FW)” value (radish cotyledons [1])?
**A.** The value was 2.17 mg/g FW.

**Q.** And the “Chlorophyll a + b (μg/cotyledon)” value (radish cotyledons [1])?
**A.** Its value is 54.10 ± 7.03 μg/cotyledon.

**Q.** And the Chlorophyll a/b (radish cotyledons [1])?
**A.** The Chlorophyll a/b was 0.87.

**Q.** And the “Change in fresh weight” value (radish cotyledons [1])?
**A.** Its value is 15.49 ± 1.81 mg.

**Q.** And the “POD activity at 48 and 72 h” value (POD (EC 1.11.1.7))?
**A.** The value was “lowest”.

**Q.** What about the PPO activity (PPO (EC 1.14.18.1)) of the same compound?
**A.** Its PPO activity is “appeared to increase gradually over time”.

**Q.** What about the protein content (radish cotyledons [2]) of the same compound?
**A.** The protein content was “rapid but transient increase”.
